According to patent US6586613B1, “Substituted tetrahydronaphthaline and analogous compounds” (Bayer Aktiengellschaft, priority 1997, dated 2003):

Experiments:
[1] = target: T1, cholesterol ester transfer protein (CETP) (Homo sapiens, UniProt P11597); test: CETP inhibition test (transfer of 3H-cholesterol ester from HDL to biotinylated LDL, SPA); format: biochemical; settings: CETP partially purified from human plasma; 37° C., 18 h
T1 construct: CETP is obtained in partially purified form from human plasma by differential centrifugation and column chromatography; from tissue; host or cells: human plasma
T1 sequence (P11597 18-493): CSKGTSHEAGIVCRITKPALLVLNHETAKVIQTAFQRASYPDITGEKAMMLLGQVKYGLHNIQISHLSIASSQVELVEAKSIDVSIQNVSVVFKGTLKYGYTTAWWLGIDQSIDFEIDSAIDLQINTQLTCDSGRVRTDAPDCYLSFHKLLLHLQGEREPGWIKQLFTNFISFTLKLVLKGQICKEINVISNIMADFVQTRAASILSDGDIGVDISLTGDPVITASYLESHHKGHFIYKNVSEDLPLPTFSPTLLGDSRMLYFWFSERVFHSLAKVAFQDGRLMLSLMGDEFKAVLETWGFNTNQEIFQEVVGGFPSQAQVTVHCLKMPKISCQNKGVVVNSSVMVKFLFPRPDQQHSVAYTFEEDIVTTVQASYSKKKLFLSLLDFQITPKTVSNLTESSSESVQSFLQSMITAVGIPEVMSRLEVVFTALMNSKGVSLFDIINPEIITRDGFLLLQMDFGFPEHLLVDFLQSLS
Procedure: CETP is obtained in partially purified form from human plasma by differential centrifugation and column chromatography and used for the test. For this purpose, human plasma is adjusted to a density of 1.21 g per ml using NaBr and centrifuged at 50,000 rpm at 4° C. for 18 h. The bottom fraction (d>1.21 g/ml) is applied to a Sephadex®Phenyl-Sepharose 4B (Pharmacia) column, washed with […]/0.001 M TrisHCl pH 7.4 and subsequently eluted using dist. water. The CETP-active fractions are pooled, dialysed against 50 mM Na-acetate pH 4.5 and applied to a CM-Sepharose® (Pharmacia) column. Elution is subsequently carried out using a linear gradient (0-1 M NaCl). The pooled CETP fractions are dialysed against 10 mM TrisHCl pH 7.4 and subsequently purified further by chromatography over a Mono Q® column (Pharmacia).
Preparation of Radioactively Labelled HDL
50 ml of fresh human EDTA plasma is adjusted to a density of 1.12 using NaBr and centrifuged at 4° C. in a Ty 65 rotor at 50,000 rpm for 18 h. The upper phase is used to obtain cold LDL. […]
To assess the CETP activity, the transfer of ^3H-cholesterol ester from human HD-lipoproteins to biotinylated LD-lipoproteins is measured.
The reaction is terminated by addition of Streptavidin-SPA® beads (Amersham) and the transferred radioactivity is directly measured in a liquid scintillation counter. […]

CETP activity = test: Ex vivo activity: CETP activity in serum of treated hamsters; settings: Syrian gold hamsters; for ED50 for ex vivo activity: CETP activity in serum; for % inhibition at 3 mg/kg: ex vivo CETP activity in serum
Procedure: Ex vivo Activity of the Compounds According to the Invention
Syrian gold hamsters, which have been bred in our own laboratory, are anaesthetized after 24 hours of fasting (0.8 mg/kg of atropine, 0.8 mg/kg of Ketavet® s.c., 30′ later 50 mg/kg of nembutal i.p.). The jugular vein is subsequently exposed and cannulated. The test substance is dissolved in a suitable solvent (usually adalate placebo solution: 60 g of glycerol, 100 ml of H2O, ad 1000 ml PEG-400) and administered to the animals via a PE catheter, which is introduced into the jugular vein. The same volume of solvent without test substance is administered to the control animals. The vein is subsequently tied off and the wound is closed.
The test substances can also be administered p.o. by dissolving the substances in DMSO and suspending them in 0.5% tylose and administering them using a pharyngeal tube. Identical volumes of solvent without test substance are administered to the control animals.
At different intervals—up to 24 hours after the administration—blood samples are taken from the animals by puncture of the retro-orbital venous plexus (approximately 250 μl). Coagulation is completed by incubation at 4° C. overnight, and the samples are subsequently centrifuged at 6000×g for 10 minutes. The CETP activity is determined in the resulting serum using the modified CETP test. The transfer of ^3H-cholesterol ester from HD-lipoproteins to biotinylated LD-lipoproteins is measured as described above for the CETP test.
The reaction is terminated by addition of Streptavidin-SPA® beads (Amersham), and the transferred radioactivity is directly determined in a liquid scintillation counter.
The test protocol is carried out as described under “CETP test”. However, to test the sera, 10 μl of CETP are replaced by 10 μl of the appropriate serum samples. Corresponding incubations of sera of untreated animals serve as controls.
The activity that is transferred in the control experiments using control sera is classified as 100% transfer. The substance concentration at which this transfer is reduced by half is stated as the ED50 value.

Syrian gold hamsters = test: In vivo activity: HDL increase after oral administration to hamsters; settings: perorally
Procedure: In vivo Activity of the Compounds According to the Invention
In experiments for assessing the oral activity on lipoproteins and triglycerides, test substance, dissolved in DMSO and suspended in 0.5% tylose, is administered perorally by means of a pharyngeal tube to Syrian gold hamsters which have been bred in our own laboratory. To determine the CETP activity, blood samples (approximately 250 μl) are taken by retro-orbital puncture prior to the start of the experiment. The test substances are subsequently administered perorally using a pharyngeal tube. Identical volumes of solvent without test substance are administered to the control animals. […]
Coagulation is completed by incubation at 4° C. overnight, and the samples are subsequently centrifuged at 6000×g for 10 minutes. The content of cholesterol and triglycerides in the resulting serum is assessed using modified commercially available enzyme tests (cholesterol enzymatic 14366 Merck, triglycerides 14364 Merck). […]
100 μl of serum dilution and 100 μl of test substance are transferred into 96-well-plates and incubated at room temperature for 10 minutes. The optical density is subsequently determined at a wavelength of 492 nm using an automatic plate reader.
The triglyceride and cholesterol concentrations of the samples are determined with the aid of a standard curve measured in parallel. […]

transgenic hCETP mice = test: In vivo activity in transgenic hCETP mice (lipoproteins and triglycerides in serum); settings: 30 ppm via the feed, after one week
Procedure: In vivo Activity in Transgenic hCETP Mice
The substances to be tested were administered to transgenic mice, which were bred in our own laboratory (Dinchuck, Hart, Gonzalez, Karmann, Schmidt, Wirak; BBA (1995), 1295, 301), via the feed. Prior to the beginning of the experiment, blood samples were taken retro-orbitally from the mice to determine cholesterol and triglycerides in the serum. The serum was obtained as described above for hamsters by incubation at 4° C. overnight and subsequent centrifugation at 6000×g. After one week, blood samples were again taken from the mice to determine lipoproteins and triglycerides. The change of the measured parameters are expressed as a change in percent based on the initial value.

Row | IC50 [1] | Structure (SMILES) | ED50 for ex vivo activity (CETP activity) | % inhibition at 3 mg/kg (CETP activity) | % HDL increase (Syrian gold hamsters; dose 2 × 0.3 mg/kg) | % HDL increase (Syrian gold hamsters; dose 2 × 1 mg/kg) | HDL, change in percent based on the initial value (transgenic hCETP mice) | LDL, change in percent based on the initial value (transgenic hCETP mice) | Triglycerides, change in percent based on the initial value (transgenic hCETP mice)
1 | 2.7 nM | O[C@H]1CC2(CCC2)Cc2cc(C3CCCC3)c([C@@H](F)c3ccc(C(F)(F)F)cc3)c(-c3ccc(F)cc3)c21 [Example 31] | <0.3 mg/kg | 72.3% | +19% | – | – | – | –
2 | 3 nM | CC(C)c1cc2c(c(-c3ccc(F)cc3)c1[C@@H](F)c1ccc(C(F)(F)F)cc1)[C@@H](O)CC(C)(C)C2 [Example 25] | <0.3 mg/kg | 83.1% | – | +15% | – | – | –
3 | – | CC(C)c1cc2c(c(-c3ccc(F)cc3)c1[C@@H](F)c1ccc(C(F)(F)F)cc1)[C@@H](O)CC1(CCC1)C2 [Example 15, (S)-8-Hydroxy-1-(4-fluorophenyl)-2-[(S)-fluoro-(4-trifluoromethyl-phenyl)-methyl]-3-isopropyl-6-spiro-cyclobutyl-5,6,7,8-tetrahydronaphthalene] | – | – | – | – | +60% | −18% | −15%
